A short description of series [1]: Cell viability MTS assay (cytotoxicity). The format is cell-based. The conditions noted are these: human; A-431 cells, 48 hrs incubation; read-out: IC50, MTS assay for cytotoxicity against A-431. The method, then:
A-431 ([…], human, ATCC CRL-1555™) cells grown in DMEM (Dulbeco's Modified Eagle's Medium, Gibco #11885) were seeded at a density of 1×10^4 cells/well into 96-well plates and incubated at 37° C. for 18 hrs under the supply of 5% CO2 until the cells stably adhered to the bottom. […] After incubation for 48 hrs in the presence of the test compound, the cells were assayed for viability.
The cells in each well was added with 21 μl of a mixture of 20:1 (v/v) of an MTS solution [(3-(4,5-dimethylthiazol-2-yl)-5-(3-carboxymethoxyphenyl)-2-(4-sulfophenyl)-2H-tetrazolium, Promega, Cat#65421; 2 mg/ml] and a PMS solution [Phenazine methosulfate, Sigma #P9625; 1 mg/ml], and incubated for 2 hrs, followed by measuring absorbance at 490 nm on a microplate reader (Molecular device, spectraMax M2). Relative to the control (media), viability by drug concentration was determined from the measurements of formazan, and the results are given in Table 2, below.

The subject of series [2] is HUVECs (human umbelical vein endothelial cells). Kind of series: Transwell assay, VEGF-induced cell migration in HUVECs. The format is cell-based. As to the method:
To examine the inhibitory effect of the compounds obtained in the Examples on VEGF (Vascular endothelial growth factor)-induced cell migration in HUVECs (human umbelical vein endothelial cells), a transwell assay was performed as follows.
HUVECs, provided from ATCC (American Type Culture Collection), were incubated in EGM-2 (Endothelial growth Medium-2 Medium) including 10% FBS, penicillin (100 unit/ml) and 100 μg/ml streptomycin sulfate plus various growth factors at 37° C. in an atmosphere of 5% CO2. After the change of the medium with growth factor-free EBM-2 (Endothelial Basal Medium-2 Medium), the cells were subjected to transwell assay.
After for 24 hours, the cells were fixed for 1 min with ethanol and were stained with a dye. Cell migration was evaluated by counting cells which moved through the pores.
In addition, cells were treated with Compound No. 250 (Example 26) at various concentrations given in Table 3, and assayed for cell migration, as conducted with Compounds 103, 110, 218, 273, 275, 276, 290, 312, 428, 442, and 509. The results were compared with those obtained after non-treatment (no treat) or treatment with 10 ng/mL VEGF.
Results were expressed as average numbers (n=3) of HUVECs which moved cross the membrane. Test results are summarized in Table 3 for compounds 103, 110, 218, 273, 275, 276, 290, 312, 428, 442, and 509, and in Table 4 for compound 250.

In series [3] the test system is HUVECs. Description: Wound healing assay, VEGF-induced migration of HUVECs. The format is cell-based, human. The method, then:
Using a sterile, disposable cell scraper (BD Falcon, Bedford, USA), a monolayer of HUVECs was scraped, and the cells were gently washed with PBS. […] After 24 hours, the cell migration were monitored through the scraped monolayer of the cell and photographed under a microscope equipped with a camera (Canon Powershot640).
Also, Compound 250 (Example 26) was applied at various concentrations shown in Table 6 in the same manner as Compound 103, followed by monitoring and photographing the migration of the cells under the microscope. For comparison, the cells were not treated (control) or were treated with 10 ng/mL VEGF, alone.

The subject of series [4] is HUVECs. Description: BrdU incorporation assay, VEGF-induced cell proliferation in HUVECs. It is filed as cell-based, human. As to the method: A BrdU incorporation assay was carried out to examine whether the proliferation of HUVECs through VEGF-induced DNA synthesis is suppressed by BRN-103. HUVECs grown as in Experimental Example 2 were seeded at a density of 1×10^4 cells/well into 96-well plates. […] Thereafter, DNA synthesis in the cells was fluorescently measured using a BrdU incorporation assay kit (Roche).
Likewise, the cells were treated with various concentrations of Compound 250 (Example 26) given in Table 8, and then with VEGF, as the same manner of that of Compound 103. Intracellular DNA was also quantified, as the same manner of that of Compound 103. For comparison, the cells were not treated (control), or were treated with 10 ng/mL VEGF, alone.

Series [5] relates to HUVECs. Description: VEGF-induced tube formation of HUVECs (capillary structure formation assay). It is filed as cell-based, human. As to the method: After HUVECs were seeded at a density of 3×10^5 cells/well into Matrigel-coated 48-well plates, HUVECs were with 10 ng/ml VEGF for 4 hrs. The HUVECs where tubes were formed were monitored and photographed under a microscope equipped with a camera to count cells.
HUVECs were also treated with Compound 250 (Example 26) at various concentrations given in Table 10, The HUVECs where tubes were formed were monitored and photographed under a microscope equipped with a camera, like Compound 103.

The test system of series [6] is aortic rings excised from Spague-Dawley rats. Description: Ex vivo microvessel sprouting assay, rat aortic rings. The conditions noted are these: 10 nM, 50 nM, 100 nM, FIG. 6. As to the method:
Likewise, after the aortic rings excised from six-week-old Spague-Dawley rats were treated with various concentrations (10 nM, 50 nM, 100 nM) of Compound 250 (Example 26) and then with VEGF, Sprouts from margins of the aortic rings were photographed under a microscope equipped with a camera, like Compound 103.

Marks after values point to notes of the source that are not given here.

As for `CC(c1ncnc(Cl)c1F)N1CCC(Nc2ncccc2C(=O)Nc2cccc(Cl)c2)CC1` (centres unmarked) [Compound 250, 2-{1-[1-(6-chloro-5-fluoropyrimidin-4-yl)ethyl]piperidin-4-ylamino}-N-(3-chlorophenyl)nicotinamide], in series [1], the IC50 at 48 h was determined as 26.1 µM. Further, the “No. of migration cells/field” value amounted to 4.5 ± 1.11 cells/field in series [2] (100 nM, without VEGF); 33 ± 2.54 cells/field in series [2] (VEGF + 25 nM); 20.3 ± 1.08 cells/field in series [2] (VEGF + 50 nM); 12.5 ± 2.5 cells/field in series [2] (VEGF + 100 nM). Moreover, the “suppression of VEGF-induced migration of HUVECs, in words” value was “remarkable suppressive effect” in series [2] (transwell assay, text on Tables 3 and 4); “highly suppresses VEGF-induced migration of HUVECs” in the series with HUVECs [3] (wound healing assay, text on Tables 5 and 6). Besides, the Wound closure in the series on HUVECs [3] (100 nM, without VEGF) was 125 µm; in the series with HUVECs [3] (VEGF + 25 nM) it was 210 µm; in the series with HUVECs [3] (VEGF + 50 nM) it was 165 µm; with HUVECs [3] (VEGF + 100 nM), 120 µm. The BrdU incorporation with HUVECs [4] (100 nM, without VEGF) was found to be 0.7 ± 0.05 OD 450 nM; with HUVECs [4] (VEGF + 25 nM), 0.79 ± 0.02 OD 450 nM; in the series with HUVECs [4] (VEGF + 50 nM), 0.75 ± 0.03 OD 450 nM; with HUVECs [4] (VEGF + 100 nM), 0.7 ± 0.05 OD 450 nM. Also, the “inhibition of VEGF-induced proliferation in HUVECs, in words” value in the series with HUVECs [4] (BrdU assay, text on Tables 7 and 8) is “inhibited VEGF-induced proliferation in HUVECs”. Also, the Number of tubes/field in the series with HUVECs [5] (100 nM, without VEGF) turned out to be 27 ± 2 tubes/field; in the series with HUVECs [5] (VEGF + 25 nM), 45 ± 6 tubes/field; with HUVECs [5] (VEGF + 50 nM), 35 ± 2 tubes/field; in the series with HUVECs [5] (VEGF + 100 nM) it was 28 ± 4 tubes/field. For the same molecule, the “suppression of VEGF-induced tube formation, in words” value in the series with HUVECs [5] (Tables 9 and 10) is “high suppressive effect on tube formation”. Besides, the VEGF-induced aortic sprouting result in series [6] was “inhibited VEGF-induced aortic sprouting”.

As for `Cc1cnc(NC(=O)c2cccnc2NC2CCN(Cc3ccccc3)CC2)s1` [Compound 428, 2-(1-Benzylpiperidin-4-ylamino)-N-(5-methylthiazol-2-yl)nicotinamide], in series [1], the concentration for half-maximal inhibition (IC50) at 48 h amounted to 125 µM. Moreover, the “No. of migration cells/field” value in series [2] (25 μM, 10 ng/ml VEGF 24 hrs, n=3) was 14.5*** cells/field.

Regarding `CCN(CC)CCNC(=O)c1c(C)[nH]c(/C=C2\C(=O)Nc3ccc(F)cc32)c1C` [Sunitinib, sunitinib, reference compound], the concentration for half-maximal inhibition (IC50) at 48 h in series [1] came out at 22 µM. Besides, in series [2] (1 μM, 10 ng/ml VEGF 24 hrs, n=3), the “No. of migration cells/field” value is listed as 16.5*** cells/field. Further, the Wound closure in the series with HUVECs [3] (VEGF + 1 μM, 24 hrs) turned out to be 210 µm. Further, in the series with HUVECs [4] (VEGF + 1 μM, 24 hrs), the BrdU incorporation was 0.84*** OD 450 nm. In the series on HUVECs [5] (VEGF + 1 μM, 4 hrs), the “Number of tubes/field” value is listed as 100*** tubes/Field.

Source of the values: patent publication US9227955B2, “Compound having angiogenesis inhibitory activity, method for preparing same, and pharmaceutical composition comprising same” (Boryung Pharmaceutical Co., Ltd., priority 2011, dated 2016).
